# Data taken from PubChem BioAssay (NCI).
#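 Test compounds were applied to cells in 96-well plates for 48 hours at 5 doses. TGI marks complete inhibition of growth.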
# Experiments:
# Assay in all cases: NCI tumour cell line growth inhibition, 48 h
# 786-0 renal = system: 786-0 renal
# A498 renal = system: A498 renal
# A549 NSCLC = system: A549 NSCLC
# ACHN renal = system: ACHN renal
# CAKI-1 renal = system: CAKI-1 renal
# CCRF-CEM leukemia = system: CCRF-CEM leukemia
# COLO 205 colon = system: COLO 205 colon
# DLD-1 colon = system: DLD-1 colon
# DMS 114 small cell lung = system: DMS 114 small cell lung
# DMS 273 small cell lung = system: DMS 273 small cell lung
# EKVX NSCLC = system: EKVX NSCLC
# HCC-2998 colon = system: HCC-2998 colon
# HCT-116 colon = system: HCT-116 colon
# HCT-15 colon = system: HCT-15 colon
# HL-60(TB) leukemia = system: HL-60(TB) leukemia
# HOP-62 NSCLC = system: HOP-62 NSCLC
# HOP-92 NSCLC = system: HOP-92 NSCLC
# HT29 colon = system: HT29 colon
# IGROV1 ovarian = system: IGROV1 ovarian
# K-562 leukemia = system: K-562 leukemia
# KM12 colon = system: KM12 colon
# KM20L2 colon = system: KM20L2 colon
# LOX IMVI melanoma = system: LOX IMVI melanoma
# LXFL 529 NSCLC = system: LXFL 529 NSCLC
# M14 melanoma = system: M14 melanoma
# MALME-3M melanoma = system: MALME-3M melanoma
# NCI-H226 lung = system: NCI-H226 lung
# NCI-H23 lung = system: NCI-H23 lung
# NCI-H460 lung = system: NCI-H460 lung
# NCI-H522 lung = system: NCI-H522 lung
# OVCAR-3 ovarian = system: OVCAR-3 ovarian
# OVCAR-4 ovarian = system: OVCAR-4 ovarian
# OVCAR-5 ovarian = system: OVCAR-5 ovarian
# OVCAR-8 ovarian = system: OVCAR-8 ovarian
# RPMI-8226 leukemia = system: RPMI-8226 leukemia
# RXF 393 renal = system: RXF 393 renal
# RXF-631 renal = system: RXF-631 renal
# SF-268 CNS = system: SF-268 CNS
# SF-295 CNS = system: SF-295 CNS
# SF-539 CNS = system: SF-539 CNS
# SK-MEL-2 melanoma = system: SK-MEL-2 melanoma
# SK-MEL-5 melanoma = system: SK-MEL-5 melanoma
# SK-OV-3 ovarian = system: SK-OV-3 ovarian
# SN12C renal = system: SN12C renal
# SNB-19 CNS = system: SNB-19 CNS
# SNB-75 CNS = system: SNB-75 CNS
# SNB-78 CNS = system: SNB-78 CNS
# SW-620 colon = system: SW-620 colon
# TK-10 renal = system: TK-10 renal
# U251 CNS = system: U251 CNS
# UACC-257 melanoma = system: UACC-257 melanoma
# UACC-62 melanoma = system: UACC-62 melanoma
# UO-31 renal = system: UO-31 renal
# XF 498 CNS = system: XF 498 CNS
smiles,measurement,setting,value
CC1=C(C(=O)CC(=O)C(=O)Nc2ccccc2C(F)(F)F)Sc2ccccc2N1,TGI,786-0 renal,> 100 µM
same,TGI,A498 renal,> 100 µM
same,TGI,A549 NSCLC,> 100 µM
same,TGI,ACHN renal,> 100 µM
same,TGI,CAKI-1 renal,> 100 µM
same,TGI,CCRF-CEM leukemia,> 100 µM
same,TGI,COLO 205 colon,> 100 µM
same,TGI,DLD-1 colon,> 100 µM
same,TGI,DMS 114 small cell lung,> 100 µM
same,TGI,DMS 273 small cell lung,> 100 µM
same,TGI,EKVX NSCLC,> 100 µM
same,TGI,HCC-2998 colon,> 100 µM
same,TGI,HCT-116 colon,> 100 µM
same,TGI,HCT-15 colon,> 100 µM
same,TGI,HL-60(TB) leukemia,> 100 µM
same,TGI,HOP-62 NSCLC,96.8 µM
same,TGI,HOP-92 NSCLC,83.5 µM
same,TGI,HT29 colon,> 100 µM
same,TGI,IGROV1 ovarian,> 100 µM
same,TGI,K-562 leukemia,> 100 µM
same,TGI,KM12 colon,> 100 µM
same,TGI,KM20L2 colon,> 100 µM
same,TGI,LOX IMVI melanoma,> 100 µM
same,TGI,LXFL 529 NSCLC,> 100 µM
same,TGI,M14 melanoma,> 100 µM
same,TGI,MALME-3M melanoma,> 100 µM
same,TGI,NCI-H226 lung,87.8 µM
same,TGI,NCI-H23 lung,85.6 µM
same,TGI,NCI-H460 lung,> 100 µM
same,TGI,NCI-H522 lung,68.4 µM
same,TGI,OVCAR-3 ovarian,> 100 µM
same,TGI,OVCAR-4 ovarian,> 100 µM
same,TGI,OVCAR-5 ovarian,> 100 µM
same,TGI,OVCAR-8 ovarian,> 100 µM
same,TGI,RPMI-8226 leukemia,> 100 µM
same,TGI,RXF 393 renal,66.2 µM
same,TGI,RXF-631 renal,> 100 µM
same,TGI,SF-268 CNS,71.4 µM
same,TGI,SF-295 CNS,> 100 µM
same,TGI,SF-539 CNS,> 100 µM
same,TGI,SK-MEL-2 melanoma,> 100 µM
same,TGI,SK-MEL-5 melanoma,> 100 µM
same,TGI,SK-OV-3 ovarian,> 100 µM
same,TGI,SN12C renal,> 100 µM
same,TGI,SNB-19 CNS,> 100 µM
same,TGI,SNB-75 CNS,80.1 µM
same,TGI,SNB-78 CNS,> 100 µM
same,TGI,SW-620 colon,> 100 µM
same,TGI,TK-10 renal,> 100 µM
same,TGI,U251 CNS,> 100 µM
same,TGI,UACC-257 melanoma,> 100 µM
same,TGI,UACC-62 melanoma,> 100 µM
same,TGI,UO-31 renal,61.7 µM
same,TGI,XF 498 CNS,> 100 µM
